From patent publication US10450295B2, “Method of using an indolinone molecule and derivatives for inhibiting liver fibrosis and hepatitis” (Acclaim BioMed USA LLC, priority 2013, dated 2019)
“Also recorded” adds a separate entry of the source.

What was measured:
human HSC (LX-2) cells = assay: Cell cycle analysis by flow cytometry (propidium iodide); assay type: cell-based; settings: 0.625 μM, vs control cultures
Method: Human Hepatic Stellate cells (LX-2 cell line) (HSCs) were obtained from the Key Lab of Regenerative Medicine, Jinan University, Guangzhou, China, which were maintained in Dulbecco's Modified Eagle Medium (DMEM)+10% fetal calf serum and penicillin-streptomycin (100 unit/ml and 0.1 mg/ml, respectively), in 5% CO2 at 37° C. inside a humidified cell incubator. The culture medium was changed every three days. To test the effects of small molecule Hesperadin on the mouse and human HSCs, the cultures were treated with 0.625 μM of Hesperadin for 48 hrs. The cultures were then fixed in ice cold 70% ethanol and incubated in phosphate buffered saline with RNase (0.25 mg/ml), Propidium iodide dye (40 μg/ml) and 0.1% Triton X for an hour at room temperature. For cell cycle analysis, the Propidium iodide stained cells were examined using a flow cytometer (“BD LSRFortessa Cell Analyzer”). The proliferation of HSCs was also evaluated by the MTT staining assay with 3-(4,5-Dimethylthiazol-2-yl)-2,5-diphenyltetrazolium bromide). HSCs were plated at 1×10^4 cells/ml and culture overnight. Hesperadin (in serial dilutions) was then added into the culture medium for 48 hours. This was followed by addition of MTT (250 μg/ml) for a further 4 hours. The medium was eluted and the formazan crystal was dissolved in 100 μL of DMSO. The absorbance (at 570 nm) was measured using a BIORAD 3550 Microplate Reader. […]

collagen type I = assay: Immunofluorescent staining of HSC cultures, collagen type I; assay type: cell-based, human; settings: 0.625 μM, 24-48 hours
Method: (§1) Human Hepatic Stellate cells (LX-2 cell line) (HSCs) were obtained from the Key Lab of Regenerative Medicine, Jinan University, Guangzhou, China, which were maintained in Dulbecco's Modified Eagle Medium (DMEM)+10% fetal calf serum and penicillin-streptomycin (100 unit/ml and 0.1 mg/ml, respectively), in 5% CO2 at 37° C. inside a humidified cell incubator. The culture medium was changed every three days. To test the effects of small molecule Hesperadin on the mouse and human HSCs, the cultures were treated with 0.625 μM of Hesperadin for 48 hrs. The cultures were then fixed in ice cold 70% ethanol and incubated in phosphate buffered saline with RNase (0.25 mg/ml), Propidium iodide dye (40 μg/ml) and 0.1% Triton X for an hour at room temperature. For cell cycle analysis, the Propidium iodide stained cells were examined using a flow cytometer (“BD LSRFortessa Cell Analyzer”). The proliferation of HSCs was also evaluated by the MTT staining assay with 3-(4,5-Dimethylthiazol-2-yl)-2,5-diphenyltetrazolium bromide). […] The absorbance (at 570 nm) was measured using a BIORAD 3550 Microplate Reader. […] After washing, the sections were viewed and recorded using a FluoView FV1000 Confocal microscope and/or a Nikon i80 microscope respectively to identify the presence of HSC expressing collagens. The positive staining of Collagen types I, III and IV was analyzed with the Metamorph software.

collagen type III = assay: Immunofluorescent staining of HSC cultures, collagen type III; assay type: cell-based, human; settings: 0.625 μM, 24-48 hours
Method: as §1

[1] = tested on: collagen 1A1 gene expression; assay: Real-time RT-PCR in HSC, collagen 1A1; assay type: cell-based, human; settings: 0.625 μM, FIG. 7
Method: (§2) Human Hepatic Stellate cells (LX-2 cell line) (HSCs) were obtained from the Key Lab of Regenerative Medicine, Jinan University, Guangzhou, China, which were maintained in Dulbecco's Modified Eagle Medium (DMEM)+10% fetal calf serum and penicillin-streptomycin (100 unit/ml and 0.1 mg/ml, respectively), in 5% CO2 at 37° C. inside a humidified cell incubator. The culture medium was changed every three days. To test the effects of small molecule Hesperadin on the mouse and human HSCs, the cultures were treated with 0.625 μM of Hesperadin for 48 hrs. […] The proliferation of HSCs was also evaluated by the MTT staining assay with 3-(4,5-Dimethylthiazol-2-yl)-2,5-diphenyltetrazolium bromide). […] The absorbance (at 570 nm) was measured using a BIORAD 3550 Microplate Reader. […]
(§3) Collagen type-I, -III and -VI, MMP-2, MMP-9 and TIMP-1 gene expression was determined using quantitative real-time PCR. […] Quantitation of mRNA levels was performed using a SYBR® Premix Ex Taq™ Kit (Takara) in an Applied Biosystems 7900HT Fast Real-Time PCR System. To quantify the amount of specific mRNA in the samples, a standard curve was generated for each PCR run using four amounts of the cDNA synthesized from our HSC cultures and liver samples. […] Data was analyzed using a StatView software (Abacus Concepts Inc) with Student's t-test.

MMP-9 gene expression = assay: Real-time RT-PCR in HSC, MMP-9; assay type: cell-based, human; settings: 0.625 μM, FIG. 10
Method: as §2, §3

TIMP-1 gene expression = assay: Real-time RT-PCR in HSC, TIMP-1; assay type: cell-based, human; settings: 0.625 μM, FIG. 11
Method: as §2, §3

[2] = tested on: human liver stellate cells; assay: Cell death assay (MTT assay) SAR screening of Hesperadin related derivatives; assay type: cell-based; settings: FIGS. 14A through 14T
human Aurora B kinase = settings: read-out: IC50 for the prevention of the phosphorylation of substrate; cited from earlier work

CCS(=O)(=O)Nc1ccc2c(c1)/C(=C(/Nc1ccc(CN3CCCCC3)cc1)c1ccccc1)C(=O)N2 [Hesperadin, (Z)—N-(2-oxo-3-(Phenyl(4-(piperidin-1-ylmethyl)phenylamino)methylene)indolin-5-yl)ethanesulfonamide]
cell-cycle progression of HSCs (human HSC (LX-2) cells): significantly more HSCs in the G2-M phase; also recorded: appeared to block cytokinesis
collagen type I expression (immunofluorescence) (collagen type I): significantly inhibited; also recorded: inhibits the synthesis of collagen type I
collagen type III expression (immunofluorescence) (collagen type III): significantly inhibited; also recorded: inhibits the synthesis of collagen type III
Collagen 1A1 mRNA expression [1]: confirmed by real-time RT-PCR analysis
MMP-9 mRNA expression (MMP-9 gene expression): inhibited
TIMP-1 mRNA expression (TIMP-1 gene expression): inhibited
percentage of inhibition, cell death assay (MTT), relative potency [2]: most potent derivative
IC50 (human Aurora B kinase): 40 nM
